The Kd is the free concentration of one partner at which half of the binding sites on the other are occupied at equilibrium, for simple one-to-one binding.

From ChEMBL document CHEMBL3991601, “The target landscape of clinical kinase drugs” (Science, 2017) come the findings set out here.

Calls of active or inactive are those of the source. Where only a bound is given, the exact number is not on record here.

The target in test [1] is Serine/threonine-protein kinase ATR (Homo sapiens, UniProt Q13535).
The target in test [2] is Cyclin-dependent kinase 2 (Homo sapiens, UniProt P24941).
Test [3] concerns the target T1, Isoleucine--tRNA ligase, mitochondrial (Homo sapiens, UniProt Q9NSE4).
T1 sequence (Q9NSE4 whole entry): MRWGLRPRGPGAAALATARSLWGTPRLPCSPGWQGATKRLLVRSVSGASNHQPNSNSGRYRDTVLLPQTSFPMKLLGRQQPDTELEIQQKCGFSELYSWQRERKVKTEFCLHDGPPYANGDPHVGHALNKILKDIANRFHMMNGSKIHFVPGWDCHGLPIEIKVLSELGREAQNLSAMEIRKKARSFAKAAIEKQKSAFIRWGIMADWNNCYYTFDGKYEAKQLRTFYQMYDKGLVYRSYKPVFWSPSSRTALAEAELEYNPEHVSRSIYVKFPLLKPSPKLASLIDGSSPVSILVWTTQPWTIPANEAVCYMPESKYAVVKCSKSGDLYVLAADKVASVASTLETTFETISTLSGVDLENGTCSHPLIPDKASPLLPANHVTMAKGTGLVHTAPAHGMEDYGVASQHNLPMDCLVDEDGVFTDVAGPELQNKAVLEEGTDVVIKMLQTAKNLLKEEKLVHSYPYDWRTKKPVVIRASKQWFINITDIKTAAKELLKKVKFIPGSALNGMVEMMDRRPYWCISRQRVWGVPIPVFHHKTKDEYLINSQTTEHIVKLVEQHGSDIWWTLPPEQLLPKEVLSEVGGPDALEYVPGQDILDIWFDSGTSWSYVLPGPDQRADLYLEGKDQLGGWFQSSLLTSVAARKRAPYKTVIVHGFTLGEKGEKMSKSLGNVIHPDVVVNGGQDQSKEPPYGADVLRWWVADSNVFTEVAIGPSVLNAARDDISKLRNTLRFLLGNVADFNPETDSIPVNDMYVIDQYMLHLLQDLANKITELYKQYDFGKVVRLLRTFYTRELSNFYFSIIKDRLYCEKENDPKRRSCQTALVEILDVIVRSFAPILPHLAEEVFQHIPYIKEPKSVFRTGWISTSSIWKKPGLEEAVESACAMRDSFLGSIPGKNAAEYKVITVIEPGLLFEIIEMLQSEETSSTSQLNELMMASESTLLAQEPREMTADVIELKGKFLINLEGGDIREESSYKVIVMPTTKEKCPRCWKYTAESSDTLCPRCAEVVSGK

In test [4] the target is T2, Thyroid hormone receptor-associated protein 3 (Homo sapiens, UniProt Q9Y2W1).
T2 sequence (Q9Y2W1 whole entry): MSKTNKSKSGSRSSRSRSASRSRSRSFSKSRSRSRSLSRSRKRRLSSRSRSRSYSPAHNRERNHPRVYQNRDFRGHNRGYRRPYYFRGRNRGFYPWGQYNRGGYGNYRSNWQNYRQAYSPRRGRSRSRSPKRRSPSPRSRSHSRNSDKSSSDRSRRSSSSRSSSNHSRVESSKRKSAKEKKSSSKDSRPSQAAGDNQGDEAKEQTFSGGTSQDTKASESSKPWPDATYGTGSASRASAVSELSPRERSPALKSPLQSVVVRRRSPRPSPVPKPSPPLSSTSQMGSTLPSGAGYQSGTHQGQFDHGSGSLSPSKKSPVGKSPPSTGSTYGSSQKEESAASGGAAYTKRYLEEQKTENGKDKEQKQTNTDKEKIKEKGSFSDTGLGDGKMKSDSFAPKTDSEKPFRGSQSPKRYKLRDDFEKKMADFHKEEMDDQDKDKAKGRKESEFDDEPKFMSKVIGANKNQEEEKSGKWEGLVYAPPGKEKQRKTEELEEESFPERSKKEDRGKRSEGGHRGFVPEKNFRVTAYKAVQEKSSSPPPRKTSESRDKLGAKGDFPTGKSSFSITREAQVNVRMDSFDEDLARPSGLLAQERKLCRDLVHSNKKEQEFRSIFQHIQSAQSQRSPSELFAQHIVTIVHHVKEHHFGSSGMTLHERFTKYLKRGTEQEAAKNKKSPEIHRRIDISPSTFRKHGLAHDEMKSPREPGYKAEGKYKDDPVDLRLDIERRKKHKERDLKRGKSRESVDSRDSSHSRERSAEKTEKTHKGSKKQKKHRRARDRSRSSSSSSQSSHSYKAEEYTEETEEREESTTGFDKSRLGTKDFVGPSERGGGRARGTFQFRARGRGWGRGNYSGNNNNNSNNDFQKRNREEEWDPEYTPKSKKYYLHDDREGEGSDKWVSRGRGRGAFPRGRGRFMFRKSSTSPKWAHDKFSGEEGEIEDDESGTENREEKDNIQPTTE

In a further test the target is Obg-like ATPase 1 (Homo sapiens, UniProt Q9NTK5).
Test [5] concerns the target T3, Inhibitor of nuclear factor kappa-B kinase subunit epsilon (Homo sapiens, UniProt Q14164).
T3 sequence (Q14164 whole entry): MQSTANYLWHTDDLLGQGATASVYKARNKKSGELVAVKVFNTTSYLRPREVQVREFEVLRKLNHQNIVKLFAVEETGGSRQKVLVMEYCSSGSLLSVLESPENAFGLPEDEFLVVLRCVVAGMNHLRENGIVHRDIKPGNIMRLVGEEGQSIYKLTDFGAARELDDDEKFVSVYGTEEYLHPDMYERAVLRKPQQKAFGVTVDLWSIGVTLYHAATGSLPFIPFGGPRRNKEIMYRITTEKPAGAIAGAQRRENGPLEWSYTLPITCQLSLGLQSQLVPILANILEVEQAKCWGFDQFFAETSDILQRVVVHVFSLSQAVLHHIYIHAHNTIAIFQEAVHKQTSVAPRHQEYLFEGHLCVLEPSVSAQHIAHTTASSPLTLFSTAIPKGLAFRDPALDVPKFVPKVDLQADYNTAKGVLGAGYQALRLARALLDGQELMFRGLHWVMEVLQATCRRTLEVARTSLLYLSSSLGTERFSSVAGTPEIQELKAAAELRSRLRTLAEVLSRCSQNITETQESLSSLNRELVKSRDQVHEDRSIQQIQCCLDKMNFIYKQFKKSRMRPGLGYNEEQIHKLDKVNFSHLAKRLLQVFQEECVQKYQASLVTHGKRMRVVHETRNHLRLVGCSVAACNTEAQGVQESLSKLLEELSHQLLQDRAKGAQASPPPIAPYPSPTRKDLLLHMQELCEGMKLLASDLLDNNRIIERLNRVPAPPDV

Test [6] concerns the target Dual specificity protein kinase CLK4 (Homo sapiens, UniProt Q9HAZ1).
Further: in the data inactive means no Kd found up to 30 µM.

Obg-like ATPase 1, sequence (Q9NTK5 whole entry, looked up): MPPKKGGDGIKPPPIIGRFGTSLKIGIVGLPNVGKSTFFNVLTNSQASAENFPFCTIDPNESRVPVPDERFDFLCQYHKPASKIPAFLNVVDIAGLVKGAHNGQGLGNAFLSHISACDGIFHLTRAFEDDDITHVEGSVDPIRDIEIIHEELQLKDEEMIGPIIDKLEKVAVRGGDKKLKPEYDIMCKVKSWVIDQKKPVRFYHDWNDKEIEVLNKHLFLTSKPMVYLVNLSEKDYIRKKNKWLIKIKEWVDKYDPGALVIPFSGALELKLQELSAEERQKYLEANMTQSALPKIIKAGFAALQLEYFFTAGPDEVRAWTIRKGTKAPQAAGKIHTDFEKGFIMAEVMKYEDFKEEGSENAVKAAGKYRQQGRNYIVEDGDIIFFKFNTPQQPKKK
Serine/threonine-protein kinase ATR, sequence (Q13535 whole entry): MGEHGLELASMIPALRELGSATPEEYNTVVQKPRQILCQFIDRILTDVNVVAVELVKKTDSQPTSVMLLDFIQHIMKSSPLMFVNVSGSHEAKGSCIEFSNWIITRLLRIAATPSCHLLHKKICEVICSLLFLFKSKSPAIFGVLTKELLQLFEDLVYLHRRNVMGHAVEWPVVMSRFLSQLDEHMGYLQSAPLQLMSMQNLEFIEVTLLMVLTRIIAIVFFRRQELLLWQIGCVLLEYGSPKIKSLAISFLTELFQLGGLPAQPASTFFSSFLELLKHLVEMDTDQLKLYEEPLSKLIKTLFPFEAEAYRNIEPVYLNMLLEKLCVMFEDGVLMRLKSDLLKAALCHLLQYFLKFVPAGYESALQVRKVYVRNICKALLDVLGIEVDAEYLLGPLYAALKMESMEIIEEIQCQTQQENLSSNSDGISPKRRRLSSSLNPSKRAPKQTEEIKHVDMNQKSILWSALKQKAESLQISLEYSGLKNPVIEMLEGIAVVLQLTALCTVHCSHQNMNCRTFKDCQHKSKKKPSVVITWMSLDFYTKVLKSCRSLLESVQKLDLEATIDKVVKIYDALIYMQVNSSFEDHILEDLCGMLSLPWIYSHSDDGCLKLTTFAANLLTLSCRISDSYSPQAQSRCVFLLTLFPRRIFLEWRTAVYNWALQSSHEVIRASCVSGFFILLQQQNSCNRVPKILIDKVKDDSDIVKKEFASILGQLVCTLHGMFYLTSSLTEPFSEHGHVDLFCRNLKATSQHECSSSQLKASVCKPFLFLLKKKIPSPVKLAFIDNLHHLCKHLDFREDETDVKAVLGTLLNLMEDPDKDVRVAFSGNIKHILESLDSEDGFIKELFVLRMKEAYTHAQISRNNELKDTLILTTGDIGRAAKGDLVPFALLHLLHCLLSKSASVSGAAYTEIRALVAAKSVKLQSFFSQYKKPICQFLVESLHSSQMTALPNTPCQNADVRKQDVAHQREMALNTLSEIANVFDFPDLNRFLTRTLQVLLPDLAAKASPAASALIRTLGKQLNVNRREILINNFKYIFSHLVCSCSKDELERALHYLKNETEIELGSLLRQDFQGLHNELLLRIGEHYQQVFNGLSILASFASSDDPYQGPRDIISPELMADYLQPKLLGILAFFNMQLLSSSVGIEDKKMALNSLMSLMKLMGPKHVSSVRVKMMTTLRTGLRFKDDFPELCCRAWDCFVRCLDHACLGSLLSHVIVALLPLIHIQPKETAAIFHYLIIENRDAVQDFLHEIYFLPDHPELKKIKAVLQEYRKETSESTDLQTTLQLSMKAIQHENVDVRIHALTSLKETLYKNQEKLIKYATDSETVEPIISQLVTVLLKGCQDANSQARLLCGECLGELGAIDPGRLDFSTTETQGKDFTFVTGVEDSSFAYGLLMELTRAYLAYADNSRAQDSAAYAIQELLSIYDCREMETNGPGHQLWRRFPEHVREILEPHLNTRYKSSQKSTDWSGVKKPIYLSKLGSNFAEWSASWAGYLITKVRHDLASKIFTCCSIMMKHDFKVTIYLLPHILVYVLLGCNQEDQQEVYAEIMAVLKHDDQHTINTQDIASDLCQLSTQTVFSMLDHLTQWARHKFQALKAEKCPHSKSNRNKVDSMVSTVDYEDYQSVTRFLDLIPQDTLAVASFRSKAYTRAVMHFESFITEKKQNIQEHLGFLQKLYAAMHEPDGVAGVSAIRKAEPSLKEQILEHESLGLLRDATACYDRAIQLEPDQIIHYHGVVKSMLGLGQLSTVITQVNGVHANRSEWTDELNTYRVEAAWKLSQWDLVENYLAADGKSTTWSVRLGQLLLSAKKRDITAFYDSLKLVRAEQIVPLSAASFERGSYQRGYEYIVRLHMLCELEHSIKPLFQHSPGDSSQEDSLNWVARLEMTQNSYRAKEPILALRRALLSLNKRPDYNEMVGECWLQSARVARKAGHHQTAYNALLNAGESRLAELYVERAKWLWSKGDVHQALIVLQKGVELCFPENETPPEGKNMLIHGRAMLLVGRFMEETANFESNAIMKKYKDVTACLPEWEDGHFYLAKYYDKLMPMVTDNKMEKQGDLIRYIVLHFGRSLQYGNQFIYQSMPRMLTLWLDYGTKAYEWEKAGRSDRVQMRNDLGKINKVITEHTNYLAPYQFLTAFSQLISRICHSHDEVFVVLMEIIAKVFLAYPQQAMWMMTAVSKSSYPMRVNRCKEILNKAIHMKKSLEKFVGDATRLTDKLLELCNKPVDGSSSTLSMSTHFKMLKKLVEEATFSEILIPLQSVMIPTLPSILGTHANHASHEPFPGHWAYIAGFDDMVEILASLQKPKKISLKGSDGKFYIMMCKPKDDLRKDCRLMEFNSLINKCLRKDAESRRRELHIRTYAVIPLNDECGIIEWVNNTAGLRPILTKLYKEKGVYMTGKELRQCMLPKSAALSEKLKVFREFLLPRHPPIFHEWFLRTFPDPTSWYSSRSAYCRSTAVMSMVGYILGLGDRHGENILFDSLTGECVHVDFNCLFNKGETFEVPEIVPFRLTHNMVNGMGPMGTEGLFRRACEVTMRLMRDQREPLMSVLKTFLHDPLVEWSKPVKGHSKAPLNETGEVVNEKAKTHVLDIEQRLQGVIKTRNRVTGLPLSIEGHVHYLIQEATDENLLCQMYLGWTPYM
Dual specificity protein kinase CLK4, sequence (Q9HAZ1 whole entry): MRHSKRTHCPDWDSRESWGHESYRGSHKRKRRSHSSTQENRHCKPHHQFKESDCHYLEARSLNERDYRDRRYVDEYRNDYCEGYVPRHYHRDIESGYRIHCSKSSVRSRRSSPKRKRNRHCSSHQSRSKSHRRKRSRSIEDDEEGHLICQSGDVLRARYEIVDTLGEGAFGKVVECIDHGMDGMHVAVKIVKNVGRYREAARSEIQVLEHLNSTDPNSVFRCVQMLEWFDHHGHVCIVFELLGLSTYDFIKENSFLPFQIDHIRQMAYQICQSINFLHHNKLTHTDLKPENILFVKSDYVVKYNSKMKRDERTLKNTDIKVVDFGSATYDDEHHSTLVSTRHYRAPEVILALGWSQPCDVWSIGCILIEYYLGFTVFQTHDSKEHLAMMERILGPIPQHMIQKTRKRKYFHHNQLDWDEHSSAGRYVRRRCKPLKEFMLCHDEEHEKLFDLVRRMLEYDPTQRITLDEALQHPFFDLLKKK

As to `Cc1ccc(S(=O)(=O)Nc2nc3ccccc3nc2Nc2ccc3nsnc3c2)cc1`, the Kd (in test [1]; in test [2]; in test [3]; in test [4]; at Obg-like ATPase 1; in test [5]) was > 30 µM (inactive) throughout. The Kd in test [6] was > 30 µM (inactive).

For the molecule `COc1cc(OC)c(/C=C/S(=O)(=O)Cc2ccc(OC)c(NCC(=O)O)c2)c(OC)c1` [RIGOSERTIB], the Kd (in test [1]; in test [2]; in test [4]; on Obg-like ATPase 1; in test [5]; in test [6]) was > 30 µM (inactive) each time.

In the case of `CCCS(=O)(=O)Nc1ccc(F)c(C(=O)c2c[nH]c3ncc(-c4ccc(Cl)cc4)cc23)c1F` [VEMURAFENIB], the Kd (in test [1]; in test [2]; in test [4]; on Obg-like ATPase 1; in test [5]; in test [6]) was > 30 µM (inactive) in each case.

Take `O=C(Nc1ccc(-c2ccnc(Nc3ccc(N4CCOCC4)cc3)n2)cc1)C1CCCN1` (stereo not drawn) [XL-019]: the Kd is > 30 µM (inactive) in test [1]; > 30 µM (inactive) in test [4]; > 30 µM (inactive) at Obg-like ATPase 1; 0.342 µM (active) in test [5]; > 30 µM (inactive) in test [6].

As for `COC(=O)N[C@@H](C)CNc1nccc(-c2cn(C(C)C)nc2-c2cc(Cl)cc(NS(C)(=O)=O)c2F)n1` [ENCORAFENIB], the Kd (in test [1]; in test [2]; in test [3]; in test [4]; at Obg-like ATPase 1; in test [5]) was > 30 µM (inactive) throughout. In addition, the Kd in test [6] was > 30 µM (inactive).

In the case of `O=C1NC(=O)/C(=C/c2ccc3nccc(-c4ccncc4)c3c2)S1` [GSK-1059615], the Kd (in test [1]; in test [2]; in test [3]; in test [4]; on Obg-like ATPase 1; in test [5]) was > 30 µM (inactive) each time.

With `COc1cc(CCc2cc(NC(=O)c3ccc(N4C[C@@H](C)N[C@@H](C)C4)cc3)n[nH]2)cc(OC)c1` [AZD-4547], the Kd in test [1], in test [4], in test [5] and in test [6] was > 30 µM (inactive) throughout.

In the case of `C[C@@H]1CN(Cc2ccc(F)cc2)[C@@H](C)CN1C(=O)c1cc2c(C(=O)C(=O)N(C)C)cn(C)c2cc1Cl` [TALMAPIMOD], the Kd (in test [1]; in test [2]; on Obg-like ATPase 1; in test [5]; in test [6]) was > 30 µM (inactive) in each case.

For `C[C@@H](c1ccc2nccn2c1)n1nnc2ncc(-c3cnn(C)c3)nc21` [SAVOLITINIB], the Kd in test [1], in test [2], in test [3], in test [4], in test [5] and in test [6] was > 30 µM (inactive) throughout.

Take `COc1cc(N2CCC(N3CCN(C)CC3)CC2)ccc1Nc1ncnc(Nc2ccccc2S(=O)(=O)C(C)C)n1` [ASP-3026]: the Kd in test [1], in test [2], in test [4], in test [5] and in test [6] was > 30 µM (inactive) in each case.

As for `Cc1cc([C@@H](C)Nc2ccccc2C(=O)O)c2nc(N3CCOCC3)cc(=O)n2c1` [AZD-6482], the Kd (in test [1]; in test [2]; in test [4]; on Obg-like ATPase 1; in test [5]; in test [6]) was > 30 µM (inactive) each time.

In the case of `Cc1ccc(NC(=O)c2ccc(CN3CC[C@H](N(C)C)C3)c(C(F)(F)F)c2)cc1Nc1nccc(-c2cncnc2)n1` [BAFETINIB], the Kd (in test [1]; in test [2]; in test [4]; on Obg-like ATPase 1; in test [5]; in test [6]) was > 30 µM (inactive) each time.

Regarding `CN(C)C(=O)c1cc2cnc(Nc3ccc(N4CCNCC4)cn3)nc2n1C1CCCC1` [RIBOCICLIB], the Kd (in test [1]; in test [3]; at Obg-like ATPase 1; in test [5]; in test [6]) was > 30 µM (inactive) throughout.

On to `Cn1cc(-c2ccc3nnc(C(F)(F)c4ccc5ncccc5c4)n3n2)cn1` [JNJ-38877605], for which the Kd in test [1], in test [2], in test [4], in test [5] and in test [6] was > 30 µM (inactive) throughout.

For `CC[C@H](Nc1ncnc2[nH]cnc12)c1nc2cccc(F)c2c(=O)n1-c1ccccc1` [IDELALISIB], the Kd in test [1], in test [2], in test [4] and in test [6] was > 30 µM (inactive) each time.

As to `O=C(c1ccc(F)c(F)c1Nc1ccc(I)cc1F)N1CC(O)([C@@H]2CCCCN2)C1` [COBIMETINIB], the Kd in test [1], in test [2], in test [4], in test [5] and in test [6] was > 30 µM (inactive) throughout.
